≈ marks a conversion by molar mass, not a printed value.
Legend:
Assay type in all cases: functional
Ralstonia solanacearum [1] = experiment: Antibacterial activity against Pseudomonas solanacearum after 12 to 16 hrs by plate reader analysis
Staphylococcus aureus = experiment: Antibacterial activity against Staphylococcus aureus after 12 to 16 hrs by plate reader analysis
Bacillus cereus = experiment: Antibacterial activity against Bacillus cereus after 12 to 16 hrs by plate reader analysis
Ralstonia solanacearum [2] = experiment: Antibacterial activity against Ralstonia solanacearum after 12 to 16 hrs by plate reader analysis

Structure (SMILES)	MIC (Ralstonia solanacearum [1]) [µg/mL]	MIC (Staphylococcus aureus) [µg/mL]	MIC (Bacillus cereus) [µg/mL]	MIC (Ralstonia solanacearum [2]) [µg/mL]
O=c1ccc2c3c(cc[n+]2Cc2ccc(Cl)cc2)c2ccccc2n13.[Cl-]	15.6	7.81	15.6	15.6
CCCCCCCC[n+]1ccc2c3ccccc3n3c(=O)ccc1c23.[Br-]	7.81	0.98	62.5	31.2
CCC[n+]1ccc2c3ccccc3n3c(=O)ccc1c23.[I-]	> 125	> 125	> 125	> 125
CC[n+]1ccc2c3ccccc3n3c(=O)ccc1c23.[I-]	> 125	> 125	> 125	> 125
O=C1CCc2nccc3c4ccccc4n1c23	7.81 (≈ 35.1 µM)	125 (≈ 562 µM)	15.6 (≈ 70.3 µM)	15.6 (≈ 70.3 µM)
O=c1ccc2c3c(cc[n+]2Cc2ccccc2)c2ccccc2n13.[Br-]	7.81	0.98	3.91	3.91
O=c1ccc2c3c(cc[n+]2Cc2ccc(F)cc2F)c2ccccc2n13.[Cl-]	7.81	0.98	31.2	31.2
O=c1ccc2c3c(cc[n+]2Cc2ccccc2F)c2ccccc2n13.[Cl-]	3.91	1.95	7.81	15.6
O=c1ccc2c3c(cc[n+]2Cc2c(F)cccc2F)c2ccccc2n13.[Cl-]	7.81	0.98	15.6	15.6
C=CC[n+]1ccc2c3ccccc3n3c(=O)ccc1c23.[Br-]	62.5	62.5	125	62.5
CC(C)[n+]1ccc2c3ccccc3n3c(=O)ccc1c23.[I-]	> 125	> 125	> 125	> 125
O=c1ccc2c3c(cc[n+]2Cc2ccccc2)c2ccccc2n13.[Cl-]	1.95	1.95	3.91	3.91
CC1(C)S[C@@H]2[C@H](NC(=O)[C@H](N)c3ccccc3)C(=O)N2[C@H]1C(=O)[O-].[Na+] [AMPICILLIN SODIUM]	7.81	3.91	3.91	7.81
Cc1ccccc1C[n+]1ccc2c3ccccc3n3c(=O)ccc1c23.[Cl-]	3.91	1.95	7.81	7.81
C[n+]1ccc2c3ccccc3n3c(=O)ccc1c23.[I-]	> 125	> 125	> 125	> 125
O=C1CCC2NCCc3c2n1c1ccccc31 (stereo unspecified)	> 125	> 125	> 125	> 125
CCCC[n+]1ccc2c3ccccc3n3c(=O)ccc1c23.[I-]	62.5	62.5	125	62.5
O=c1ccc2c3c(cc[n+]2Cc2ccc(F)cc2)c2ccccc2n13.[Cl-]	15.6	1.95	31.2	31.2
O=c1ccc2c3c(cc[n+]2Cc2ccc(OCc4ccccc4)cc2)c2ccccc2n13.[Cl-]	3.91	0.98	15.6	7.81
O=c1ccc2nccc3c4ccccc4n1c23 [CANTHIN-6-ONE]	3.91 (≈ 17.8 µM)	31.2 (≈ 142 µM)	7.81 (≈ 35.5 µM)	7.81 (≈ 35.5 µM)
CCCCC[n+]1ccc2c3ccccc3n3c(=O)ccc1c23.[I-]	15.6	31.2	62.5	31.2
Cc1cccc(C[n+]2ccc3c4ccccc4n4c(=O)ccc2c34)c1.[Cl-]	7.81	1.95	15.6	15.6
Cc1ccc(C[n+]2ccc3c4ccccc4n4c(=O)ccc2c34)cc1.[Cl-]	7.81	1.95	15.6	31.2
O=c1ccc2c3c(cc[n+]2Cc2ccc(C(F)(F)F)cc2)c2ccccc2n13.[Cl-]	62.5	7.81	62.5	15.6
C[C@@H]1O[C@@H]1P(=O)([O-])[O-].[Na+].[Na+] [PHOSPHOMYCIN DISODIUM]	125	3.91	3.91	1.95
O=C1CCC2c3c(c4ccccc4n31)CCN2Cc1ccccc1 (stereo unspecified)	> 125	> 125	> 125	> 125
CC(C)C[n+]1ccc2c3ccccc3n3c(=O)ccc1c23.[I-]	62.5	125	> 125	> 125
O=c1ccc2c3c(cc[n+]2[O-])c2ccccc2n13	7.81 (≈ 33.1 µM)	15.6 (≈ 66.2 µM)	15.6 (≈ 66.2 µM)	15.6 (≈ 66.2 µM)
O=c1ccc2c3c(cc[n+]2Cc2ccc(CBr)cc2)c2ccccc2n13.[Br-]	31.2	7.81	62.5	31.2

From ChEMBL document CHEMBL3745648, “Synthesis, in vitro antibacterial activities of a series of 3-N-substituted canthin-6-ones” (2016)
